The test has as its target T1, hM2 receptor (Homo sapiens, UniProt P08172).
T1 construct: expressed in transfected cells; membranes prepared
T1 sequence (P08172 1-466): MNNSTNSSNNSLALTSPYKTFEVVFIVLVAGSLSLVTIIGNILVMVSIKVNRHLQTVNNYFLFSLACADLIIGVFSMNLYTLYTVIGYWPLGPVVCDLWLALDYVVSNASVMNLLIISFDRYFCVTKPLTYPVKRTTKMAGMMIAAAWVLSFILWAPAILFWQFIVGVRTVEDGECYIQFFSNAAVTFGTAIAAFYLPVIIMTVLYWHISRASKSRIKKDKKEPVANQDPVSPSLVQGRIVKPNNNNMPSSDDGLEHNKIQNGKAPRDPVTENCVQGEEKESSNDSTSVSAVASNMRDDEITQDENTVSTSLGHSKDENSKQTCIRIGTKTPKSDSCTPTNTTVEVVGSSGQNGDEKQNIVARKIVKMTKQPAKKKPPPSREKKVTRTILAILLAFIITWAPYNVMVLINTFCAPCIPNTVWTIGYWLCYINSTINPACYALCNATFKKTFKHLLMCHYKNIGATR
Briefly: Blockade of agonist-mediated GTPγ[35S] binding. The test is classed as biochemical. To be noted: membranes of CHO-K1 cells expressing hM2; read-out: Ki for blockade of carbachol-mediated GTPγ[35S] binding. As for the experimental part: In this assay, the functional potency of a test compound was determined by measuring the ability of the test compound to block carbachol-stimulated GTPγ[^35S] binding in CHO-K1 cells expressing the hM2 receptor.
CHO-K1 cells stably expressing the hM2 muscarinic receptor were grown in medium consisting of Hams F-12 media supplemented with 10% Fetal Bovine Serum and 500 μg/ml of Geneticin (G-418). Cells were incubated in a 5% CO2, humidified incubator at 37° C. Cells were grown to confluence and harvested with dPBS+2 mM EDTA and pelleted by centrifugation at 250×g for 10 minutes.
Cells from the centrifuged pellets were resuspended in homogenization buffer (10 mM HEPES, 10 mM EDTA, pH 7 at 4° C.). […]
To determine the ability of a test compound to inhibit carbachol-stimulated GTPγ[^35S] binding, the following was added to each well of 96 well plates: 25 μL of assay buffer with […] and GDP, 25 μL of diluted test compound (prepared as described above), and 25 μL CHO cell membranes expressing the hM2 receptor. […] After the pre-incubation period, 25 μL of carbachol at the final concentration of its EC90 value determined earlier in the day was added to each plate. […]
Test compound potency (IC50) was determined using iterative curve fitting (GraphPad Prism 3.0 software; single site competition curve). […]

pKi: −log10 of the molar value.

`COc1ccncc1CN1CCC(N(CCCCCCCN2CC[C@@H](C(C(N)=O)(c3ccccc3)c3ccccc3)C2)C(C)C)CC1` [Example 1]: the pKi is over 9.00.

The values above are taken from patent publication US7285564B2, “Substituted 4-amino-1-(pyridylmethyl)piperidine and related compounds” (Theravance, Inc., priority 2002, dated 2007).
